Results from BindingDB's records for doi:10.3109/14756366.2010.491795 (Dumlupinar University, 2011).

Legend:
[1] = biological target: T1, Carbonic anhydrase 2 (Homo sapiens, UniProt P00918); assay: Hydratase Activity Assay
[2] = biological target: T2, Carbonic anhydrase 1 (Homo sapiens, UniProt P00915); assay: Hydratase Activity Assay
[3] = biological target: T1, Carbonic anhydrase 2; assay: Enzyme Activity Assay
[4] = biological target: T2, Carbonic anhydrase 1; assay: Enzyme Activity Assay
[5] = biological target: T1, Carbonic anhydrase 2; assay: Esterase Activity Assay; settings: pH 7.4
Experimental: (§1) The enzymatic reaction, in a total volume of 3 mL, contained 1.4 mL of 0.05 M tris-SO4 buffer (pH 7.4), 1 mL of 3 mM 4-nitrophenylacetate, 0.5 mL H2O and 0.1 mL enzyme solution. A reference measurement was obtained by preparing the same cuvette without any enzyme solution.

[6] = biological target: T2, Carbonic anhydrase 1; assay: Esterase Activity Assay; settings: pH 7.4
Experimental: as §1

T2 sequence (P00915 whole entry): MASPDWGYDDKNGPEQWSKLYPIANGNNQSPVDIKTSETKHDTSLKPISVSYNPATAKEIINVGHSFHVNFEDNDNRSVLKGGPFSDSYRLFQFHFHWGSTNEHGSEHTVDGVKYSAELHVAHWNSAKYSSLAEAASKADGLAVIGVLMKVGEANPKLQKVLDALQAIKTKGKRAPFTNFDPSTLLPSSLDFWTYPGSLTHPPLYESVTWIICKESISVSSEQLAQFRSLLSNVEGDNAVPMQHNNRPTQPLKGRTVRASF

| SMILES | IC50 [1] | IC50 [2] | Ki [3] | Ki [4] | IC50 [5] | IC50 [6] |
| --- | --- | --- | --- | --- | --- | --- |
| NS(=O)(=O)c1nnc(NC(=O)c2nn(-c3ccc(NN=C(C(=O)c4ccccc4)C(=O)c4ccccc4)cc3)c(-c3ccccc3)c2C(=O)c2ccccc2)s1 [4-Benzoyl-1-(4-(2-(1,3-dioxo-1,3-diphenylpropan-2-ylidene)hydrazinyl)phenyl)-5-phenyl-N-(5-sulphamoyl-1,3,4-thiadiazol-2-yl)-1H-pyrazole-3-carboxamide (13)] | 1000 nM | 700 nM | 3180 nM | 1020 nM | 1420 nM | 4800 nM |
| NS(=O)(=O)c1nnc(NC(=O)c2nn(-c3ccc(/N=N/c4c(O)ccc5ccccc45)cc3)c(-c3ccccc3)c2C(=O)c2ccccc2)s1 [4-Benzoyl-1-(4-((2-hydroxynaphthalen-1-yl)diazenyl)phenyl)-5-phenyl-N-(5-sulphamoyl-1,3,4-thiadiazol-2-yl)-1H-pyrazole-3-carboxamide (8)] | 2400 nM | 2860 nM | 848 nM | 5830 nM | 2100 nM | 4750 nM |
| CCOC(=O)C(=NNc1ccc(-n2nc(C(=O)Nc3nnc(S(N)(=O)=O)s3)c(C(=O)c3ccccc3)c2-c2ccccc2)cc1)C(=O)OCC [Diethyl 2-(2-(4-(4-benzoyl-5-phenyl-3-(5-sulphamoyl-1,3,4-thiadiazol-2-ylcarbamoyl)-1H-pyrazol-1-yl)phenyl)hydrazono)malonate (16)] | 1000 nM | 850 nM | 65 nM | 300 nM | 70 nM | 380 nM |
| CCOC(=O)/C(=N/Nc1ccc(-n2nc(C(=O)Nc3nnc(S(N)(=O)=O)s3)c(C(=O)c3ccccc3)c2-c2ccccc2)cc1)C(=O)c1ccccc1 [Ethyl 2-(2-(4-(4-benzoyl-5-phenyl-3-(5-sulphamoyl-1,3,4-thiadiazol-2-ylcarbamoyl)-1H-pyrazol-1-yl)phenyl)hydrazono)-3-oxo-3-phenylpropanoate (14)] | 1300 nM | 1320 nM | 498 nM | 1530 nM | 850 nM | 800 nM |
| CCOC(=O)/C(=N/Nc1ccc(-n2nc(C(=O)Nc3nnc(S(N)(=O)=O)s3)c(C(=O)c3ccccc3)c2-c2ccccc2)cc1)C(C)=O [Ethyl 2-(2-(4-(4-benzoyl-5-phenyl-3-(5-sulphamoyl-1,3,4-thiadiazol-2-ylcarbamoyl)-1H-pyrazol-1-yl)phenyl)hydrazono)-3-oxobutanoate (15)] | 800 nM | 1210 nM | 125 nM | 1190 nM | 140 nM | 910 nM |

The remaining molecules from weak to strong by IC50 [1], led by results:

| IC50 [1] | IC50 [2] | Ki [3] | Ki [4] | IC50 [5] | IC50 [6] | SMILES |
| --- | --- | --- | --- | --- | --- | --- |
| 800 nM | 200 nM | 18 nM | 95 nM | 30 nM | 230 nM | NS(=O)(=O)c1nnc(NC(=O)c2nn(-c3ccc(/N=N/c4ccc(O)cc4)cc3)c(-c3ccccc3)c2C(=O)c2ccccc2)s1 [4-Benzoyl-1-(4-((4-hydroxyphenyl)diazenyl)phenyl)-5-phenyl-N-(5-sulphamoyl-1,3,4-thiadiazol-2-yl)-1H-pyrazole-3-carboxamide (9)] |
| 600 nM | 750 nM | 3920 nM | 6670 nM | 1740 nM | 2400 nM | CC(=O)Cn1c(C)cc2cc(-n3nc(C(=O)Nc4nnc(S(N)(=O)=O)s4)c(C(=O)c4ccccc4)c3-c3ccccc3)ccc21 [4-Benzoyl-1-(2-methyl-1-(2-oxopropyl)-1H-indol-5-yl)-5-phenyl-N-(5-sulphamoyl-1,3,4-thiadiazol-2-yl)-1H-pyrazole-3-carboxamide (18)] |
| 200 nM | 780 nM | 108 nM | 310 nM | 80 nM | 330 nM | CC(=O)/C(=N\Nc1ccc(-n2nc(C(=O)Nc3nnc(S(N)(=O)=O)s3)c(C(=O)c3ccccc3)c2-c2ccccc2)cc1)C(=O)OC(C)(C)C [tert-Butyl 2-(2-(4-(4-benzoyl-5-phenyl-3-(5-sulphamoyl-1,3,4-thiadiazol-2-ylcarbamoyl)-1H-pyrazol-1-yl)phenyl)hydrazono)-3-oxobutanoate (17)] |
| 180 nM | 270 nM | 56 nM | 360 nM | 50 nM | 350 nM | NS(=O)(=O)c1nnc(NC(=O)c2nn(-c3ccc(I)cc3)c(-c3ccccc3)c2C(=O)c2ccccc2)s1 [4-Benzoyl-1-(4-iodophenyl)-5-phenyl-N-(5-sulphamoyl-1,3,4-thiadiazol-2-yl)-1H-pyrazole-3-carboxamide (10)] |
| 160 nM | 164 nM | 244 nM | 1530 nM | 370 nM | 1000 nM | CC(=O)/C(=N\Nc1ccc(-n2nc(C(=O)Nc3nnc(S(N)(=O)=O)s3)c(C(=O)c3ccccc3)c2-c2ccccc2)cc1)C(=O)c1ccccc1 [4-Benzoyl-1-(4-(2-(1,3-dioxo-1-phenylbutan-2-ylidene)hydrazinyl)phenyl)-5-phenyl-N-(5-sulphamoyl-1,3,4-thiadiazol-2-yl)-1H-pyrazole-3-carboxamide (12)] |
| 80 nM | 330 nM | 103 nM | 572 nM | 130 nM | 570 nM | CC(=O)C(=NNc1ccc(-n2nc(C(=O)Nc3nnc(S(N)(=O)=O)s3)c(C(=O)c3ccccc3)c2-c2ccccc2)cc1)C(C)=O [4-Benzoyl-1-(4-(2-(2,4-dioxopentan-3-ylidene)hydrazinyl)phenyl)-5-phenyl-N-(5-sulphamoyl-1,3,4-thiadiazol-2-yl)-1H-pyrazole-3-carboxamide (11)] |
